Measured values as given in US20210030025A1, “BLOOD-FREE DIET FOR REARING MALARIA MOSQUITO VECTORS” (UNIVERSIDADE NOVA DE LISBOA-INSTITUTO DE HIGIENE E MEDICINA …, priority 2018, published 2021).

Tested on: vitellogenin (Vg) transcription in the female mosquito fatbody
Assay: Vg expression 24 h post-feeding on diets (q-RT-PCR)
Type: in vivo, Anopheles coluzzii
Details: ΔΔCT method
Protocol: FIG. 2a. Effects of the fresh-blood-free diets on oogenesis: Expression of vitellogenin precursor. Relative expression was determined using the ΔΔCT method as fold change to mosquitoes fed on the ILD, where RLD-NoP and ILD-NoP represent liquid diet compositions not supplemented with peptides, blood represent conventional blood diets and the remaining RLDs and ILDs represent respectively Rich Liquid Diet and Initial Liquid Diet supplemented with the correspondent indicated peptide P1 to P6.
Oogenesis was assessed by changes in Vg expression 24 h post-feeding (FIG. 2a). Vg expression levels in the fatbodies was quantified using the ΔΔCT method a) after a blood meal, b) after microinjection with the different peptides, and c) after being fed on the various artificial diets as described in section 4. […]
Quantitative Real-time Polymerase Chain Reaction (q-RT-PCR) analysis was used to quantify the expression of Vitellogenin-1 precursor (Vg), a protein biomarker of mosquito oogenesis initiation. Vg expression levels in the fatbodies were quantified using the ΔΔCT method a) after a blood meal, b) after microinjection with the different peptides, and c) after being fed on the various artificial diets. […]
Oogenesis was assessed by changes in Vg expression 24 h post-feeding mosquitoes with the artificial diets of Examples 1 and 2 and conventional vertebrate blood diet (FIG. 2a). […]

Substance: Glucagon-like peptide 2 (HADGSFSDEMNTILDNLAARDFINWLIQTKITD; Glucagon-like peptide 2; UniProt P01275 146-178, looked up) [Diet P2, glucagon-like peptide 2 (1-33) (human), from Bachem]
- Vg transcript levels after feeding: significantly increased VTG expression
